{
  "source": "patent EP1000624A1",
  "about": "“Use of DOP as antioxidant, anti-ageing additive and medicament” (priority 1998, dated 2000)",
  "key": {"acute toxicity, peroral": {"assay": "acute toxicity, peroral", "parameters": "species or system Ratte", "details": "in vivo, po, rat", "procedure": "Die akute Toxizität von DOP wurde peroral an der Ratte bestimmt; die letale Dosis, bei der 50% der Versuchstiere verenden (LD50), beträgt mehr als 2000 mg/kg."}, "Haut": {"test_system": "Haut", "assay": "skin irritation test according to EU Commission 93/21/EEC", "assay_type": "in vivo, Kaninchen", "details": "rabbit; after 24, 48 and 72 hours", "excerpt": "(§1) Um festzustellen, ob DOP Reizungen der Augen oder der Haut hervorrufen kann, wurde am Kaninchen ein Augenreiztest und ein Hautreiztest durchgeführt, beide gemäß der Verordnung der EU-Kommission Nr. 93/21/EEC vom 27.04.1993."}, "[1]": {"test_system": "Kornea, Iris und Konjunktiva", "assay": "eye irritation test according to EU Commission 93/21/EEC", "assay_type": "in vivo, Kaninchen", "details": "rabbit; effects on cornea, iris and conjunctiva after 24, 48 and 72 hours", "excerpt": "as §1"}},
  "data": [
    {"smiles": "O=[PH]1Oc2ccccc2-c2ccccc21", "note": "(stereo not shown) [DOP, (6H)-Dibenz-(c,e)(1,2)-oxaphosphorin-6-on]", "values": [
      {"measurement": "LD50", "setting": "acute toxicity, peroral", "result": "> 2000", "unit": "mg/kg"},
      {"measurement": "Hautreiztest: Einstufung", "setting": "Haut", "result": "nicht hautreizend"},
      {"measurement": "Hautreiztest: Erythembildung / Oedembildung", "setting": "Haut", "result": "weder eine Erythembildung noch eine Oedembildung"},
      {"measurement": "Augenreiztest: Einstufung", "setting": "[1]", "result": "nicht augenreizend"}
    ]}
  ]
}
